For series [1] the following is noted: for water adsorbed (hygroscopicity): content to which the form adsorbs water; for water adsorbed (hygroscopicity) / hygroscopicity: dihydrochloride.
The test system of series [2] is sickle cell transgenic (PS) mice. The settings on record: administration to sickle cell transgenic (PS) mice; cited from earlier work.
The test system of series [3] is beagles. The settings on record: dog, in vivo. As for the experimental part:
This study evaluated the cardiovascular effects of high doses of 6R-BH4 in combination with the PDE5 inhibitor sildenafil citrate in vivo. Eight male research nonnaïve and naïve purebred beagles were dosed in a double Latin square crossover design as described in the following table. All animals were dosed by oral gavage. Test articles were administered at a dose volume of 5 mL/kg (for a total volume of 10 mL/kg for the combination dose); control animals were dosed at a dose volume of 10 mL/kg. 6R-BH4 (sapropterin dihydrochloride) provided as 300 mg tablets (100 mg active 6R-BH4/tablet) stored at room temperature with desiccant.
At initiation of treatment, the animals were approximately 7 to 10 months old, and their body weights prior to dosing ranged from 7.8 to 12.0 kg.
At least 2 weeks prior to initiation of treatment, animals were fasted overnight, anesthetized, and an electrocardiogram (ECG) and blood pressure transmitter were implanted into the abdomen and sutured to the abdominal wall. The blood pressure catheter was placed in an artery and advanced to the abdominal aorta. Animals were checked twice daily (a.m. and p.m.) for mortality, abnormalities, and signs of pain and distress. Additional findings were recorded as observed.
Detailed observations were taken three times during the predose phase (including the day before dosing) and on Days 3 and 10 of the dosing phase. For each dosing day, ECG and pressure measurements were recorded for at least 90 minutes prior to dosing, continuously for at least 8 hours after dosing, and then for one period of at least 15 minutes in duration each hour through at least 24 hours postdose. Blood pressure measurements included systolic, diastolic, and mean arterial pressures and pulse pressure (systolic-diastolic). […]
Quantitative evaluation of ECG measurements, including RR interval, QT, and rate-corrected QT (QTc, using Fridericia's method), were done.
Positive inotropic effects (+dP/dtmax) and heart rate were calculated from a left ventricular pressure signal predose and approximately 2, 4, 8, 12, and 24 hours postdose. […]

The test system of series [4] is hypertensive patients. Description: Study 2: dose-response of oral BH4 on blood pressure and heart rate, after 2-week vitamin C run-in. Type of series: in vivo, human. As for the experimental part: Prior studies have used parenteral infusion of BH4 or a single oral dose; thus it was not known whether long-term oral BH4 over a period of days to weeks would result in a sustained improvement in endothelial dysfunction. […] Two studies were conducted to investigate the duration of action of oral BH4 and the response of hypertensive subjects to different doses of BH4. […] Patients were continued on their current anti-hypertensive therapy which remained unchanged. […] BH4 powder was obtained from Schircks Laboratories (Jona, Switzerland). BH4 when administered with vitamin C was compounded with vitamin C at a ratio of 1 mg of vitamin C/1 mg BH4 into appropriate sized capsules. Subjects were advised to keep the pills in a freezer or refrigerator. For both study 1 and study 2, the primary end point after statistical analysis was a reduction of systolic, mean and diastolic BP during BH4 therapy. Secondary end points included improvement of endothelial function as FMD. Linear mixed effects models for repeated measures data were used to analyze change in BP from baseline to end of treatment period and differences in change between 100 mg and 200 mg dose groups. A quadratic term for week was included in the model to account for non-linear trends over the treatment period. Dose, week and week squared were the main effect terms in the model; dose by week and dose by week squared were the interaction terms in the model. Significant interaction terms indicate a difference in the pattern of change between the two dose groups. FMD data was analyzed using the two-tailed student t-test. […] Of the 20 subjects who qualified for participation, 4 were excluded during the run-in phase because of inability to return for follow-up appointments. There were 6 male subjects, mean age 59.5±8.3 years. Eight subjects received 200 mg b.i.d (twice daily) of oral BH4 and 8 received 100 mg b.i.d. of oral BH4. […] Because BH4 was compounded with vitamin C in a 1:1 ratio, all subjects received vitamin C, at their assigned BH4 dose, twice a day during the first 2-week period. After this 2-week run-in period, subjects received BH4 only at their assigned dosage for the next 4 weeks. Weekly heart rate and BP measurements were made during the run-in period and treatment period. Mean blood pressure was calculated as: (SBP+2×DBP)/3. BH4 was then stopped and follow-up was performed at 1 and 4 weeks after discontinuation where BP and heart rate measurements were made. Routine chemistries and LFT's were drawn prior to initiation of medication, at the end of BH4 therapy and one month after discontinuation of BH4.

Where a name gives a salt, the structure may show the parent alone.

The source of these data is patent US20090018136A1, “METHODS AND COMPOSITIONS FOR THE TREATMENT OF VASCULAR DISEASE” (priority 2005, published 2009).

On to `C[C@H](O)[C@H](O)[C@H]1CNc2nc(N)[nH]c(=O)c2N1.Cl.Cl` [form A, (6R)-L-erythro-tetrahydrobiopterin dihydrochloride], for which, in series [1], the “water adsorbed (hygroscopicity)” value is “about 3 percent by weight” and the hygroscopicity result is reported as “slightly hygroscopic”. In series [1] (tetrahydrofuran five days or tertiary-butyl methyl ether 18 hours, under nitrogen at room temperature, then filtration and air-drying), the “phase equilibration test of suspensions” value is “unchanged”. Consider `C[C@H](O)[C@H](O)[C@H]1CNc2nc(N)[nH]c(=O)c2N1.Cl.Cl` [form B, (6R)-L-erythro-tetrahydrobiopterin dihydrochloride], for which, in series [1], the hygroscopicity result is reported as “slightly hygroscopic”. Same read-out and setting: the result for `C[C@H](O)[C@H](O)[C@H]1CNc2nc(N)[nH]c(=O)c2N1.Cl.Cl` [form C, (6R)-L-erythro-tetrahydrobiopterin dihydrochloride] reads “slightly hygroscopic”; that for `C[C@H](O)[C@H](O)[C@H]1CNc2nc(N)[nH]c(=O)c2N1.Cl.Cl` [form D, (6R)-L-erythro-tetrahydrobiopterin dihydrochloride], “slightly hygroscopic”; that for `C[C@H](O)[C@H](O)[C@H]1CNc2nc(N)[nH]c(=O)c2N1.Cl.Cl` [form E, (6R)-L-erythro-tetrahydrobiopterin dihydrochloride], “non-hygroscopic”. On to `C[C@H](O)[C@H](O)[C@H]1CNc2nc(N)[nH]c(=O)c2N1.Cl.Cl` [form F, (6R)-L-erythro-tetrahydrobiopterin dihydrochloride], for which, in series [1], the “water adsorbed (hygroscopicity)” value is “about 3 percent by weight” and the hygroscopicity result was “slightly hygroscopic”.

As to `C[C@H](O)[C@H](O)[C@H]1CNc2nc(N)[nH]c(=O)c2N1.Cl.Cl` [form J, (6R)-L-erythro-tetrahydrobiopterin dihydrochloride], in series [1], the hygroscopicity result was “slightly hygroscopic”. For `C[C@H](O)[C@H](O)[C@H]1CNc2nc(N)[nH]c(=O)c2N1.Cl.Cl` [form K, (6R)-L-erythro-tetrahydrobiopterin dihydrochloride], in series [1], the “water adsorbed (hygroscopicity)” value is “about 2.0 percent by weight” and the hygroscopicity entry is given as “slightly hygroscopic”. Turning to `C[C@H](O)C(=O)C1=Nc2c(nc(N)[nH]c2=O)NC1` [sepiapterin], the blood cell adhesion entry in series [2] is “attenuation”. As for `CCCc1nn(C)c2c(=O)[nH]c(-c3cc(S(=O)(=O)N4CCN(C)CC4)ccc3OCC)nc12` [sildenafil citrate], in series [3], the Arterial pulse pressure entry is recorded as “significantly increased” and the Heart rate entry is reported as “significantly increased”. `O=C1O[C@H]([C@@H](O)CO)C(O)=C1O` [vitamin C, ascorbic acid, reference compound]: the “diastolic arterial BP” value in series [4] (Study 2, 16 subjects, after 2 weeks of vitamin C run-in, 84±13 before, p=ns) came out at 86±11 mmHg. For the same compound, the “mean arterial BP” value in series [4] (Study 2, 16 subjects, after 2 weeks of vitamin C run-in, 106±10 before, p=ns) is given as 106±12 mmHg. The “systolic arterial BP” value in series [4] (Study 2, 16 subjects, after 2 weeks of vitamin C run-in, 152±11 before, p=ns) turned out to be 148±19 mmHg. The “change in heart rate or BP during the run-in phase” value in series [4] (Study 2, vitamin C twice a day for 2 weeks, either group) is listed as “no significant change”.
